Test results: patent US20190135818A1 (SHANGHAI INSTITUTE OF MATERIA MEDICA, CHINESE ACADEMY OF …, priority 2016, published 2019)

Tests used:
[1] = tested on: Human acute myeloid leukemia cell line KG1; test: FGFR-dependent tumor cell proliferation inhibition activity test (CCK-8, 72 h); assay type: cell-based; details: Homo sapiens, KG-1, KG1 cells
From the text: Human acute myeloid leukemia cell line KG1 (FGFR1 fusion protein expressed in the cytoplasm, FGFR1-dependent tumor cell line) (ATCC, Cat. No. CCL-246), cell culture medium RPMI-1640 (Corning Cellgro, No. 10-040-CVR), fetal bovine serum (Life
Technologies, Cat. No. 10099-141) was purchased from the company; CCK-8 cell counting kit (DOJINDO, Cat. No. FK808). Adjustable wavelength microplate reader (Molecular Device, Cat. No. SpectraMax 190).
The inhibitory effect of the compound on KG1 proliferation was detected by CCK-8 Cell Counting Kit (Dojindo): Logarithmic growth phase cells were seeded in 96-well culture plate in appropriate density, 90 ul for each well. After cultured overnight, different concentrations of drugs were added and incubated for 72 h, while solvent control well was set (negative control). After the cells were treated by the compound for 72 h, 10 μL of CCK-8 reagent was added to each well. After incubated for 2-4 hours in a 37 □ incubator, the plate was read with SpectraMax 190 microplate reader at wavelength 450 nm.
The inhibition rate of compounds against cell proliferation is calculated by the following formula:
Inhibition rate (%)=(OD negative control well-OD administration well)/OD negative control well×100%.
(§1) The IC50 values were obtained by four-parameter regression analysis using the software supplied with the microplate reader.

FGFR1 = target: T1, FGFR1 (Homo sapiens, UniProt P11362); test: FGFR kinase inhibitory activity experiment (ELISA, Poly(Glu,Tyr)4:1 substrate); assay type: biochemical; details: kinase recombinant protein FGFR1, ATP 5 μM
T1 construct: The reaction was initiated by addition of FGFR kinase domain recombinant protein diluted with 49 μL of reaction buffer; purchased Millipore 14-482
T1 sequence (P11362 478-767 limits assumed): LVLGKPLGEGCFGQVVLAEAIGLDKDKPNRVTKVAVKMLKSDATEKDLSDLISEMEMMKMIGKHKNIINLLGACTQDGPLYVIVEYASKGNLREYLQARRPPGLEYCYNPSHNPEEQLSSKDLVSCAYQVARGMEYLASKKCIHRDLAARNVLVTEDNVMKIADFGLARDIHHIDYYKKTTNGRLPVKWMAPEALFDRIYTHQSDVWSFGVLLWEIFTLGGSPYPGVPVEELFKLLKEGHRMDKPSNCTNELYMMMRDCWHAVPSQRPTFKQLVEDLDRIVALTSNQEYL
Description: Precision electronic balance (Sartotius, Cat. No. BP210D), adjustable wavelength microplate reader (Molecular Device, Cat. No. SpectraMax 190).
After the liquid was removed from the wells, the plate was washed for three times with 200 μL/well of T-PBS (PBS containing 0.1% Tween-20) for 5 minutes each time. The enzyme plate was dried at 37° C. in a dryer for 1-2 hours.
50 μL ATP solution diluted with reaction buffer (50 mM HEPES pH 7.4, 50 mM MgCl2, 0.5 mM MnCl2, 0.2 mM Na3VO4, 1 mM DTT) was added into each well at a 5 μM final concentration. The compounds were diluted to appropriate concentration in DMSO, 1 μL/well or containing the corresponding concentrations of DMSO (negative control wells). The reaction was initiated by addition of FGFR kinase domain recombinant protein diluted with 49 μL of reaction buffer. Two control wells without enzyme were set in each experiment. The plate was placed on a shaker (100 rpm) at 37° C. for 1 hour. The plate was washed with T-PBS for three times. 100 μL/well of primary antibody PY99 dilution was added, and incubated at 37° C. for 0.5 hour on a shaker (100 rpm). The plate was washed with T-PBS for three times. 100 μL/well of horseradish peroxidase-labeled secondary anti-goat anti-mouse IgG dilution was added and incubated at 37° C. for 0.5 hour on a shaker (100 rpm). The plate was washed with T-PBS for three times. 100 μL/well of 2 mg/mL OPD coloration solution (diluted with 0.1 M citric acid-sodium citrate buffer containing 0.03% H2O2 (pH=5.4)) was added, and incubated in darkness for 1-10 minutes at 25° C. The reaction was quenched with 50 μL/well 2M H2SO4, and read at 490 nm using a tunable microplate microplate reader SPECTRA MAX 190.
The inhibition ratio of the sample was determined by the following formula: […]
as §1

C=CC(=O)N1CCC(n2nc3c(=O)[nH]nc(N)c3c2-c2oc3ccc(F)cc3c2C)CC1 [Compound A80, 2-(1-acryloylpiperidin-4-yl)-4-amino-3-(5-fluoro-3-methylbenzofuran-2-yl)-2,6-dihydro-7H-pyrazolo[3,4-d]pyridazin-7-one]
IC50 [1]: 100 to 1000 nM
IC50 (FGFR1): 100 to 1000 nM

C=CC(=O)N1CCC(n2nc3c(=O)[nH]nc(N)c3c2-c2oc3ccc(C)cc3c2C)CC1 [Compound A29, 2-(1-acryloylpiperidin-4-yl)-4-amino-3-(3,5-dimethyl-1-benzofuran-2-yl)-2,6-dihydro-7H-pyrazolo[3,4-d]pyridazin-7-one]
IC50 [1]: ≤ 100 nM
IC50 (FGFR1): < 100 nM

Cc1ccc2oc(-c3c4c(N)n[nH]c(=O)c4nn3-c3ccc(N(C)CCN(C)C)cc3)c(C)c2c1 [Compound A11, 4-amino-2-(4-{[2-(dimethylamino)ethyl] (methyl)amino}phenyl)-3-(3,5-dimethyl-1-benzofuran-2-yl)-2,6-dihydro-7H-pyrazolo[3,4-d]pyridazin-7-one]
IC50 [1]: 100 to 1000 nM
IC50 (FGFR1): < 100 nM

Cc1ccc2oc(-c3c4c(N)n[nH]c(=O)c4nn3C3CCN(CCN(C)C)CC3)c(C)c2c1 [Compound A36, 4-amino-2-{1-[2-(dimethylamino)ethyl]piperidin-4-yl}-3-(3,5-dimethylbenzofuran-2-yl)-2H-pyrazolo[3,4-d]pyridazin-7(6H)-one]
IC50 (FGFR1): < 100 nM

C=C(F)C(=O)N1CCC(n2nc3c(=O)[nH]nc(N)c3c2-c2oc3ccc(C)cc3c2C)C1 (centres unmarked) [Compound A52, 4-amino-3-(3,5-dimethyl-1-benzofuran-2-yl)-2-[1-(2-fluoroacryloyl)pyrrolidin-3-yl]-2,6-dihydro-7H-pyrazolo[3,4-d] pyridazin-7-one]
IC50 [1]: ≤ 100 nM
IC50 (FGFR1): < 100 nM

C=CC(=O)N1CCC(n2nc3c(=O)[nH]nc(N)c3c2-c2oc3ccc(C)cc3c2CC)CC1 [Compound A85, 2-(1-acryloylpiperidin-4-yl)-4-amino-3-(3-ethyl-5-methylbenzofuran-2-yl)-2,6-dihydro-7H-pyrazolo[3,4-d]pyridazin-7-one]
IC50 [1]: ≤ 100 nM
IC50 (FGFR1): < 100 nM

Cc1c(-c2c3c(N)n[nH]c(=O)c3nn2-c2ccccc2)oc2ccc(Cl)cc12 [Compound A7, 4-amino-3-(5-chloro-3-methyl-1-benzo-furan-2-yl)-2-phenyl-2,6-dihydro-7H-pyrazolo[3,4-d]pyridazin-7-one]
IC50 [1]: 100 to 1000 nM
IC50 (FGFR1): < 100 nM

C=CC(=O)NC1CCC(n2nc3c(=O)[nH]nc(N)c3c2-c2oc3ccc(C)cc3c2C)CC1 (centres unmarked) [Compound A33, N-{4-[4-amino-3-(3,5-dimethyl-1-benzo-furan-2-yl)-7-carbonyl-6,7-dihydro-2H-pyrazolo[3,4-d]pyridazin-2-yl]cyclohexyl}prop-2-enamide]
IC50 [1]: ≤ 100 nM
IC50 (FGFR1): < 100 nM

Cc1ccc2oc(-c3c4c(N)n[nH]c(=O)c4nn3C3CCN(C(=O)/C=C/CN(C)C)CC3)c(C)c2c1 [Compound A30, 4-amino-2-{1-[(2E)-4-(dimethylamino)but-2-enoyl]piperidin-4-yl}-3-(3,5-dimethyl-1-benzofuran-2-yl)-2,6-dihydro-7H-pyrazolo[3,4-d]pyridazin-7-one]
IC50 [1]: ≤ 100 nM
IC50 (FGFR1): < 100 nM

C=CC(=O)N1CCCC(n2nc3c(=O)[nH]nc(N)c3c2-c2oc3ccc(OC)cc3c2C)C1 (centres unmarked) [Compound A79, 2-(1-acryloylpiperidin-3-yl)-4-amino-3-(5-methoxy-3-methylbenzofuran-2-yl)-2,6-dihydro-7H-pyrazolo[3,4-d] pyridazin-7-one]
IC50 [1]: ≤ 100 nM
IC50 (FGFR1): < 100 nM

C=CC(=O)N1CCC(n2nc3c(=O)[nH]nc(N)c3c2-c2oc3cc(C)ccc3c2C)CC1 [Compound A82, 2-(1-acryloylpiperidin-4-yl)-4-amino-3-(3,6-dimethylbenzofuran-2-yl)-2,6-dihy-dro-7H-pyrazole[3,4-d]pyridazin-7-one]
IC50 [1]: ≤ 100 nM
IC50 (FGFR1): < 100 nM

Cc1ccc2oc(-c3c4c(N)n[nH]c(=O)c4nn3C3CCN(C(=O)/C=C/CN4CCC4)CC3)c(C)c2c1 [Compound A31, 4-amino-2-{1-[(2E)-4-(azetidin-1-yl)but-2-enoyl]piperidin-4-yl}-3-(3,5-dimethyl-1-benzofuran-2-yl)-2,6-dihydro-7H-pyrazolo[3,4-d]pyridazin-7-one]
IC50 (FGFR1): < 100 nM

CCC(=O)N1CCC(n2nc3c(=O)[nH]nc(N)c3c2-c2oc3ccc(Cl)cc3c2C)CC1 [Compound A41]
IC50 [1]: 100 to 1000 nM
IC50 (FGFR1): < 100 nM

C=CC(=O)N1CCC(n2nc3c(=O)[nH]nc(N)c3c2-c2oc3ccc(Cl)cc3c2C)CC1 [Compound A86, 2-(1-acryloylpiperidin-4-yl)-4-amino-3-(5-chloro-3-methylbenzofuran-2-yl)-2,6-dihydro-7H-pyrazolo[3,4-d]pyridazin-7-one]
IC50 [1]: ≤ 100 nM
IC50 (FGFR1): < 100 nM

CCC(=O)N1CCC(n2nc3c(=O)[nH]nc(N)c3c2-c2oc3ccc(C)cc3c2C)CC1 [Compound A10, 4-amino-3-(3,5-dimethyl-1-benzofuran-2-yl)-2-(1-propionylpiperidin-4-yl)-2,6-dihydro-7H-pyrazolo[3,4-d]pyridazin-7-one]
IC50 [1]: 100 to 1000 nM
IC50 (FGFR1): < 100 nM

C=CC(=O)N1CCC(n2nc3c(=O)[nH]nc(N)c3c2-c2oc3ccc(C)cc3c2C)C1 (centres unmarked) [Compound A51, 2-(1-acryloylpyrrolidin-3-yl)-4-amino-3-(3,5-dimethyl-1-benzofuran-2-yl)-2,6-dihydro-7H-pyrazolo[3,4-d]pyridazin-7-one]
IC50 [1]: ≤ 100 nM
IC50 (FGFR1): < 100 nM

C=CC(=O)N1CCCC(n2nc3c(=O)[nH]nc(N)c3c2-c2oc3ccc(C)cc3c2C)C1 (centres unmarked) [Compound A40, 2-(1-acryloylpiperidin-3-yl)-4-amino-3-(3,5-dimethyl-1-benzofuran-2-yl)-2,6-dihy-dro-7H-pyrazolo[3,4-d]pyridazin-7-one]
IC50 [1]: ≤ 100 nM
IC50 (FGFR1): < 100 nM

C=CC(=O)Nc1ccc(-n2nc3c(=O)[nH]nc(N)c3c2-c2oc3ccc(C)cc3c2C)cc1N(C)CCN(C)C [Compound A32, N-(4-[4-amino-3-(3,5-dimethyl-1-benzo-furan-2-yl)-7-carbonyl-6,7-dihydro-2H-pyrazolo[3,4-d]pyridazin-2-yl]-2-{[(dimethylamino)ethyl](methyl)amino}phenyl)prop-2-enamide]
IC50 (FGFR1): < 100 nM

Cc1c(-c2c3c(N)n[nH]c(=O)c3nn2C2CCN(C(=O)/C=C/CNC3CC3)CC2)oc2ccc(Cl)cc12 [Compound A56, 4-amino-3-(5-chloro-3-methyl-1-benzo-furan-2-yl)-2-{1-[(2E)-4-(cyclopropyl-amino)but-2-enoyl]piperidin-4-yl}-2,6-dihydro-7H-pyrazolo[3,4-d]pyridazin-7-one]
IC50 (FGFR1): < 100 nM

Cc1ccc2oc(-c3c4c(N)n[nH]c(=O)c4nn3C3CCN(C(=O)/C=C/CN(C)C4CC4)CC3)c(C)c2c1 [Compound A34, 4-amino-2-(1-{(2E)-4-[cyclopropyl (methyl)amino]but-2-enoyl}piperidin-4-yl)-3-(3,5-dimethyl-1-benzofuran-2-yl)-2,6-dihydro-7H-pyrazolo[3,4-d] pyridazin-7-one]
IC50 (FGFR1): < 100 nM

C=CC(=O)N1CCC(Cn2nc3c(=O)[nH]nc(N)c3c2-c2oc3ccc(C)cc3c2C)CC1 [Compound A38, 2-[(1-acryloylpiperidin-4-yl)methyl]-4-amino-3-(3,5-dimethyl-1-benzofuran-2-yl)-2,6-dihydro-7H-pyrazolo[3,4-d]pyridazin-7-one]
IC50 (FGFR1): < 100 nM

C=CC(=O)N1CC(Cn2nc3c(=O)[nH]nc(N)c3c2-c2oc3ccc(C)cc3c2C)C1 [Compound A45, 2-[(1-acryloylazetidin-3-yl)methyl]-4-amino-3-(3,5-dimethyl-1-benzofuran-2-yl)-2,6-dihydro-7H-pyrazolo[3,4-d] pyridazin-7-one]
IC50 (FGFR1): < 100 nM

Cc1ccc2oc(-c3c4c(N)n[nH]c(=O)c4nn3-c3ccccc3)c(C)c2c1 [Compound A4, 4-amino-3-(3,5-dimethyl-1-benzofuran-2-yl)-2-phenyl-2,6-dihydro-7H-pyrazolo [3,4-d]pyridazine-7-one]
IC50 [1]: 100 to 1000 nM
